The experiment has as its system 5-α-reductase. Put plainly: in vivo inhibiting activity of 5-α-reductase: plasmatic DHT concentration after oral administration. The arrangement: species or system Sprague-Dawley rats. As to the method: Determination in vivo of the inhibiting activity of 5-α-reductase of an extract of Boehmeria nippononivea.
For the in-vivo study of the inhibition of 5-α-reductase, Sprague-Dawley (Charles River Italia) male adult rats were used having a body weight of 200-250 g.
The animals were stalled under standard conditions: at a temperature of 22/23° C., with 65% relative humidity, by exposing them to light cycles of 12 h light/12 h darkness.
A standard diet in pellets (standard diet, Charles River) was administered to the rats, together with water ad libitum.
Samples were taken from the rear-orbital plexus, immediately before the pharmacological treatment (T0) and then at 3, 6 and 8 hours after administration.
The administration of the substance being tested was effected orally.
Furthermore, contemporarily with each sampling of the treated animals, samples were also taken from non-treated animals to determine the basal analyte level.
Plasma obtained from the whole blood, treated with EDTA after centrifugation, was preserved at −20° C. until analysis.
The plasmatic concentrations of DHT (dihydrotestosterone) were determined by a commercial kit (DSL, Chematil, Angri, SA) after extraction of the samples.
All the samples of an experimental set were analyzed together to reduce the inter analytical variability.

Structures are written as SMILES. Where “and” joins values, the source holds several entries; their conditions need not be identical. Equal values may be shown once.

Consider `CC(C)(C)NC(=O)[C@H]1CC[C@H]2[C@@H]3CC[C@H]4NC(=O)C=C[C@]4(C)[C@H]3CC[C@]12C` [Finasteride], for which the “plasmatic DHT concentration, individual animals” value by setting is: (Finasteride 1 mg oral, 3 hrs) 298.09 and 505.28 and 300.00 and 569.62 and 404.63 and 530.00; (Finasteride 1 mg oral, 6 hrs) 404.13 and 565.00 and 379.59 and 592.06 and 148.51 and 420.07; (Finasteride 1 mg oral, 8 hrs) 706.70 and 140.06 and 503.90 and 530.07 and 173.11 and 110.00; (Finasteride 5 mg oral, 3 hrs) 217.10 and 618.58 and 151.18 and 640.97 and 924.20 and 569.38; (Finasteride 5 mg oral, 6 hrs) 205.21 and 103.62 and 54.35 and 60.67 and 49.67 and 128.25 and 176.92 and 81.23; (Finasteride 5 mg oral, 8 hrs) 201.56 and 108.76 and 745.40 and 576.60 and 250.90 and 300.12. Besides, the “plasmatic DHT concentration, average” value is, setting by setting: (Finasteride 1 mg oral, 3 hrs, n = 6) 434.603; (Finasteride 1 mg oral, 6 hrs, n = 6) 418.227; (Finasteride 1 mg oral, 8 hrs, n = 6) 360.640; (Finasteride 5 mg oral, 3 hrs, n = 6) 520.235; (Finasteride 5 mg oral, 6 hrs, n = 8) 107.490; (Finasteride 5 mg oral, 8 hrs, n = 6) 363.890. In addition, the “trend of the DHT concentration following administration” value (oral, 3, 6 and 8 hours after administration) was 8 hours after treatment, increases returning to the basal levels.

Values taken from patent US20070207228A1, “Composition for Regulating the Trophism of Hair Follicles and the Cutaneous Production of Sebum and Use Thereof in Androgenic Alopecia” (priority 2004, published 2007).
